Reference: patent EP4806891A1 (Kangbaida (Sichuan) Biotechnology Co., Ltd., priority 2023, dated 2025)

The compounds below were run against T1, HEK-Blue-hTLR8 cells (Homo sapiens, UniProt Q9NR97) (assay: HEK-Blue-hTLR8 cell inhibition assay). Conditions: R848 3 µM, 16 h, OD 620 nm, read-out: TLR8 IC50.
T1 construct: expressed in transfected cells; host or cells: HEK-Blue-hTLR8 cells (HEK293-derived reporter line)
T1 sequence (Q9NR97 27-1041): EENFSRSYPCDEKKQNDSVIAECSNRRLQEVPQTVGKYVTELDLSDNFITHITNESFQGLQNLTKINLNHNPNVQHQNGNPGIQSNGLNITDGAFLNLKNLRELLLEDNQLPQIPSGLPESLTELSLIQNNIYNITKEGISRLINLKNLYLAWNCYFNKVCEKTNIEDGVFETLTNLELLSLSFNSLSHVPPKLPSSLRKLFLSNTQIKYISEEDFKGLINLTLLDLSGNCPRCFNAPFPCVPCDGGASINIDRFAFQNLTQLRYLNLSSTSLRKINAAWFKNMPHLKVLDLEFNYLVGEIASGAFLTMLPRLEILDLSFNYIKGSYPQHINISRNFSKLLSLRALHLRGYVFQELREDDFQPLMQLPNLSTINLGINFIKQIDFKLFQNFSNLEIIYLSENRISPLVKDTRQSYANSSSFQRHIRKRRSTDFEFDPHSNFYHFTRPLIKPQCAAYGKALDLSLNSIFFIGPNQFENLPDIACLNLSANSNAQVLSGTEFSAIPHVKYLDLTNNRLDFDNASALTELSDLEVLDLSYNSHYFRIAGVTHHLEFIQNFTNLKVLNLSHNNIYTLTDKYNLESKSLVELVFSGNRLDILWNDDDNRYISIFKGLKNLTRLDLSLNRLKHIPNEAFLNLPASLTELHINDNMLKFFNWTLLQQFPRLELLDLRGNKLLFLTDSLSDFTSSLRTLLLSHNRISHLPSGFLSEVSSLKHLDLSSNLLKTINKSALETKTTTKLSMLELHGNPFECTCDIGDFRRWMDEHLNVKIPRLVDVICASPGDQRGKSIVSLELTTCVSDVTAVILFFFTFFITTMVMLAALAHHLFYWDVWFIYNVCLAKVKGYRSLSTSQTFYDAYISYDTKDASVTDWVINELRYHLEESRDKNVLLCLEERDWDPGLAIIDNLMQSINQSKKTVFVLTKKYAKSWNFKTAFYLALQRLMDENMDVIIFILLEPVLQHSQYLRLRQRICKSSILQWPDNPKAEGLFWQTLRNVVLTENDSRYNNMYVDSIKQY
Type: cell-based
Summary of the method: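 Cells were pre-incubated 4 h, then co-treated 16 h at 37 °C with compound (10 doses, 0.5–10000 nM final) plus R848 (0.8 µM for TLR7, 3 µM for TLR8) or ODN2006 (1 µM, TLR9). Reporter OD620 gave inhibition relative to DMSO blank and agonist-only controls; IC50 came from curve fitting.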

Row | SMILES | IC50 [nM]
1 | CN(C)[C@H]1CC[C@H](c2nnc([C@]34CN(c5ccc(C#N)c6ncccc56)C[C@@]3(C(F)(F)F)C4)o2)CC1 [Compound 21, 5-((1S,5R)-1-(5-((1R,4S)-4-(dimethylamino)cyclohexyl)-1,3,4-oxadiazol-2-yl)-5-(trifluoromethyl)-3-azabicyclo[3.1.0]hexan-3-yl)quinoline-8-carbonitrile] | < 100
2 | N#Cc1ccc(N2C[C@]3(c4nnc(C5=CCNC5)o4)C[C@]3(C(F)(F)F)C2)c2cccnc12 [Compound 22, 5-((1S,5R)-1-(5-(2,5-dihydro-1H-pyrrol-3-yl)-1,3,4-oxadiazol-2-yl)-5-(trifluoromethyl)-3-azabicyclo[3.1.0]hexan-3-yl)quinoline-8-carbonitrile] | < 100
3 | CN1CCC(n2cnc([C@]34CN(c5ccc(C#N)c6ncccc56)C[C@@]3(C(F)(F)F)C4)n2)CC1 [Compound 23, 5-((1S,5R)-1-(1-(1-methylpiperidin-4-yl)-1H-1,2,4-triazol-3-yl)-5-(trifluoromethyl)-3-azabicyclo[3.1.0]hexan-3-yl)quinoline-8-carbonitrile] | < 100
4 | N#Cc1ccc(N2C[C@]3(c4nnc(C#CCN5CCOCC5)o4)C[C@]3(C(F)(F)F)C2)c2cccnc12 [Compound 24, 5-((1S,5R)-1-(5-(3-morpholinoprop-1-yn-1-yl)-1,3,4-oxadiazol-2-yl)-5-(trifluoromethyl)-3-azabicyclo[3.1.0]hexan-3-yl)quinoline-8-carbonitrile] | < 100
5 | CN(C)CC#Cc1nnc([C@]23CN(c4ccc(C#N)c5ncccc45)C[C@@]2(C(F)(F)F)C3)o1 [Compound 25, 5-((1S,5R)-1-(5-(3-(dimethylamino)prop-1-yn-1-yl)-1,3,4-oxadiazol-2-yl)-5-(trifluoromethyl)-3-azabicyclo[3.1.0]hexan-3-yl)quinoline-8-carbonitrile] | < 100
6 | CC1(C)CC(Cc2nnc([C@]34CN(c5ccc(C#N)c6ncccc56)C[C@@]3(C(F)(F)F)C4)o2)CC(C)(C)N1 [Compound 26, 5-((1S,5R)-1-(5-((2,2,6,6-tetramethylpiperidin-4-yl)methyl)-1,3,4-oxadiazol-2-yl)-5-(trifluoromethyl)-3-azabicyclo[3.1.0]hexan-3-yl)quinoline-8-carbonitrile] | < 100
7 | N#Cc1ccc(N2C[C@]3(c4nnc(N5CCOCC5)o4)C[C@]3(C(F)(F)F)C2)c2cccnc12 [Compound 27, 5-((1S,5R)-1-(5-morpholino-1,3,4-oxadiazol-2-yl)-5-(trifluoromethyl)-3-azabicyclo[3.1.0]hexan-3-yl)quinoline-8-carbonitrile] | < 1000
8 | CN1CCC(Oc2nnc([C@]34CN(c5ccc(C#N)n6ncc(F)c56)C[C@@]3(C(F)(F)F)C4)o2)CC1 [Compound 31, 3-fluoro-4-((1S,5R)-1-(5-((1-methylpiperidin-4-yl)oxy)-1,3,4-oxadiazol-2-yl)-5-(trifluoromethyl)-3-azabicyclo[3.1.0]hexan-3-yl)pyrazolo[1,5-a]pyridine-7-carbonitrile] | < 100
9 | N#Cc1ccc(N2C[C@]3(c4nnc(C5(F)CNC5)o4)C[C@]3(C(F)(F)F)C2)c2cccnc12 [Compound 32, 5-((1S,5R)-1-(5-(3-Fluoroazetidin-3-yl)-1,3,4-oxadiazol-2-yl)-5-(trifluoromethyl)-3-azabicyclo[3.1.0]hexan-3-yl)quinoline-8-carbonitrile] | < 100
10 | N#Cc1ccc(N2C[C@]3(c4nnc(C5CCNCC5F)o4)C[C@]3(C(F)(F)F)C2)c2cccnc12 (stereo partly drawn) [Compound 33] | < 100
11 | CN1CCC(c2nnc([C@]34CN(c5ccc(C#N)c6ncccc56)C[C@@]3(C(F)(F)F)C4)o2)CC1=O (stereo partly drawn) [Compound 34] | < 1000
12 | N#Cc1ccc(N2C[C@]3(c4nnc(CC5CNC5)o4)C[C@]3(C(F)(F)F)C2)c2cccnc12 [Compound 35, 5-((1S,5R)-1-(5-(azetidin-3-ylmethyl)-1,3,4-oxadiazol-2-yl)-5-(trifluoromethyl)-3-azabicyclo[3.1.0]hexan-3-yl)quinoline-8-carbonitrile] | < 1000
13 | CN1CC(Cc2nnc([C@]34CN(c5ccc(C#N)c6ncccc56)C[C@@]3(C(F)(F)F)C4)o2)C1 [Compound 36, 5-((1S,5R)-1-(5-((1-methylazetidin-3-yl)methyl)-1,3,4-oxadiazol-2-yl)-5-(trifluoromethyl)-3-azabicyclo[3.1.0]hexan-3-yl)quinoline-8-carbonitrile] | < 100
14 | CN1CC(c2nnc([C@]34CN(c5ccc(C#N)c6ncccc56)C[C@@]3(C(F)(F)F)C4)o2)C1 [Compound 39, 5-((1S,5R)-1-(5-(1-methylazetidin-3-yl)-1,3,4-oxadiazol-2-yl)-5-(trifluoromethyl)-3-azabicyclo[3.1.0]hexan-3-yl)quinoline-8-carbonitrile] | < 100
15 | CN(C)Cc1nnc([C@]23CN(c4ccc(C#N)c5ncccc45)C[C@@]2(C(F)(F)F)C3)o1 [Compound 42, 5-((1S,5R)-1-(5-((dimethylamino)methyl)-1,3,4-oxadiazol-2-yl)-5-(trifluoromethyl)-3-azabicyclo[3.1.0]hexan-3-yl)quinoline-8-carbonitrile] | < 1000
16 | N#Cc1ccc(N2C[C@]3(c4nnc(C5(F)CCNC5)o4)C[C@]3(C(F)(F)F)C2)c2cccnc12 (stereo partly drawn) [Compound 46, 5-((1S,5R)-1-(5-(3-fluoropyrrolidin-3-yl)-1,3,4-oxadiazol-2-yl)-5-(trifluoromethyl)-3-azabicyclo[3.1.0]hexan-3-yl)quinoline-8-carbonitrile] | < 100

Further lines, results first:

Row | IC50 [nM] | SMILES
17 | < 100 | CN1CCC(Cc2nnc([C@]34CN(c5ccc(C#N)c6ncccc56)C[C@@]3(C(F)(F)F)C4)o2)CC1 [Compound 37, 5-((1S,5R)-1-(5-((1-methylpiperidin-4-yl)methyl)-1,3,4-oxadiazol-2-yl)-5-(trifluoromethyl)-3-azabicyclo[3.1.0]hexan-3-yl)quinoline-8-carbonitrile]
18 | < 1000 | CN1CCC(Cc2nnc([C@]34CN(c5ccc(C#N)c6ncccc56)C[C@@]3(C(F)(F)F)C4)n2C)CC1 [Compound 38, 5-((1S,5R)-1-(4-methyl-5-((1-methylpiperidin-4-yl)methyl)-4H-1,2,4-triazol-3-yl)-5-(trifluoromethyl)-3-azabicyclo[3.1.0]hexan-3-yl)quinoline-8-carbonitrile]
19 | < 1000 | N#Cc1ccc(N2C[C@]3(c4nnc(CN5CCOCC5)o4)C[C@]3(C(F)(F)F)C2)c2cccnc12 [Compound 40, 5-((1S,5R)-1-(5-(morpholinomethyl)-1,3,4-oxadiazol-2-yl)-5-(trifluoromethyl)-3-azabicyclo[3.1.0]hexan-3-yl)quinoline-8-carbonitrile]
20 | < 1000 | N#Cc1ccc(N2C[C@]3(c4nnc(CN5CCCC5)o4)C[C@]3(C(F)(F)F)C2)c2cccnc12 [Compound 41, 5-((1S,5R)-1-(5-(Pyrrolidin-1-ylmethyl)-1,3,4-oxadiazol-2-yl)-5-(trifluoromethyl)-3-azabicyclo[3.1.0]hexan-3-yl)quinoline-8-carbonitrile]
21 | < 100 | N#Cc1ccc(N2C[C@]3(c4nnc(CCN5CCOCC5)o4)C[C@]3(C(F)(F)F)C2)c2cccnc12 [Compound 43, 5-((1S,5R)-1-(5-(morpholinoethyl)-1,3,4-oxadiazol-2-yl)-5-(trifluoromethyl)-3-azabicyclo[3.1.0]hexan-3-yl)quinoline-8-carbonitrile]
22 | > 1000 | Cn1c(CN2CCCC2)nnc1[C@]12CN(c3ccc(C#N)c4ncccc34)C[C@@]1(C(F)(F)F)C2 [Compound 44, 5-((1S,5R)-1-(4-methyl-5-(pyrrolidin-1-ylmethyl)-4H-1,2,4-triazol-3-yl)-5-(trifluoromethyl)-3-azabicyclo[3.1.0]hexan-3-yl)quinoline-8-carbonitrile]
23 | < 100 | N#Cc1ccc(N2C[C@]3(c4nnc(C5CNCC(F)C5)o4)C[C@]3(C(F)(F)F)C2)c2cccnc12 (stereo partly drawn) [Compound 45, 5-((1R,5S)-1-((difluoro-3-methyl)-12-fluoraneyl)-5-(5-(5-fluoropiperidin-3-yl)-1,3,4-oxadiazol-2-yl)-3-azabicyclo[3.1.0]hexan-3-yl)quinoline-8-carbonitrile]
24 | < 100 | CN1CCC(F)(c2nnc([C@]34CN(c5ccc(C#N)c6ncccc56)C[C@@]3(C(F)(F)F)C4)o2)C1 (stereo partly drawn) [Compound 47, 5-((1S,5R)-1-(5-(3-fluoro-1-methylpyrrolidin-3-yl)-1,3,4-oxadiazol-2-yl)-5-(trifluoromethyl)-3-azabicyclo[3.1.0]hexan-3-yl)quinoline-8-carbonitrile]
